This is an account of results in patent publication US9486461B2, “Methods and compositions for inducing apoptosis by stimulating ER stress” (UNIVERSITY OF SOUTHERN CALIFORNIA, priority 2007, dated 2016).

Molecules are shown by their SMILES. “Also recorded” adds a separate entry of the source.

Experiment [1] has as its system CHOP, GRP78, caspase 4 in U251 glioblastoma cells. In words: Western blot of ER stress indicators in U251 cells. It counts as cell-based, human. The following applies: U251, 30 and 50 μmol/L, 48 hours.
Experiment [2] deals with U87 glioblastoma tumors. In words: Tumor growth in xenograft nude mouse model. It counts as in vivo, nude mice. The following applies: daily chow for DMC, 40 mg/kg for rofecoxib, n=5. The procedure:
Once palpable tumors had formed, the animals received daily chow supplemented with DMC, rofecoxib, or no drug. Tumor size was determined every three days. Shown is the average (mean±SD) tumor volume in each group (n=5). Asterisks (**): p<0.01 between control and DMC-treated animals on day 42.

The next experiment addresses T1, purified COX-2 protein (Homo sapiens, UniProt P35354).
T1 sequence (P35354 18-604): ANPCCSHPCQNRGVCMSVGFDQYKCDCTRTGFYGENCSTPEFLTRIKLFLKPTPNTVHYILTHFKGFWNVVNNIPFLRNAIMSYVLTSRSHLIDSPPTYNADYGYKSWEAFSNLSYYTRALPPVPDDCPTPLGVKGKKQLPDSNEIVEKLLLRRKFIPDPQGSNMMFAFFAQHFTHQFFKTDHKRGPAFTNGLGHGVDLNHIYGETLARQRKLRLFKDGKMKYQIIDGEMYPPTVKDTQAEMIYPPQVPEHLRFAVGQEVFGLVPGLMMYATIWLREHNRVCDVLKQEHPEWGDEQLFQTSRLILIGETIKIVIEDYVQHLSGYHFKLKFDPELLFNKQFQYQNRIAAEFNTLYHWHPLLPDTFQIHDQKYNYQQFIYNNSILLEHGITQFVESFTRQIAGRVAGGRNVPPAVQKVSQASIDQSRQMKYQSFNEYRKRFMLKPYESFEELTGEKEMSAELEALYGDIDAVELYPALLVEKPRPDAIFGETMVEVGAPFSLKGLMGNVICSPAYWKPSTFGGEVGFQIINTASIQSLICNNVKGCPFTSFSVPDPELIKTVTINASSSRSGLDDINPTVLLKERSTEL
In words: COX-2 inhibition in vitro with purified COX-2 protein. It counts as biochemical. The procedure:
Bortezomib was obtained from the pharmacy as 3.5 mg Velcade suspended in 3.5 mL saline (Millennium Pharmaceuticals).

For experiment [3], the system named is U87 glioblastoma tumors. Kind of experiment: TUNEL assay of xenograft tumor tissue.

As for `Cc1ccc(C)c(-c2cc(C(F)(F)F)nn2-c2ccc(S(N)(=O)=O)cc2)c1` [DMC, 4-[5-(2,5-dimethylphenyl)-3-(trifluoromethyl)-1H-pyrazol-1-yl]benzenesulfonamide], the “stimulation of the ESR (CHOP, GRP78, caspase-4 cleavage)” value in experiment [1] is given as “potently stimulated the ESR”. Also, the “tumor growth on longer-term therapy” value in the experiment with U87 glioblastoma tumors [2] is recorded as “significantly reduced tumor growth”. Also, on purified COX-2 protein, the COX-2-inhibitory activity entry is “lacks the ability to inhibit COX-2; also recorded: lack thereof”. Also, the “TUNEL staining of tumor tissue” value in the experiment with U87 glioblastoma tumors [3] (U87MG xenograft, 1 mg/kg BZM and 7.5 mg/kg DMC individually or in combination, 50 h) is reported as “nor did it substantially increase TUNEL staining”. For the same molecule, in the experiment with U87 glioblastoma tumors [3] (U87 xenograft, short-term drug treatment), the “apoptosis in the tumor tissue” value was “significantly increased apoptosis”.
